# Data taken from patent publication US11427869B2, “T cell balance gene expression, compositions of matters and methods of use thereof” (THE BROAD INSTITUTE, INC., priority 2015, dated 2022).
# Test system: CD5L−/− Th17 cells
# Experiment: Nanostring nCounter Th17 codeset (312 genes), PUFA- or control-treated CD5L−/− Th17 cells
# Type: cell-based, mouse
# Conditions: CD5LKO Th17 cells + PUFA
# From the text: Applicants studied the contribution of lipid saturation to Th17 cell pathogenicity. […] Applicants analyzed the expression of a 312 gene signature of Th17 cell differentiation and function (Yosef et al., 2013) in SFA- or control-treated WT Th17 cells and in PUFA- or control-treated CD5L−/− Th17 cells differentiated with TGF-81+IL-6.
# T cell differentiation culture. Naïve CD4+CD44−CD62L+CD25− T cells or Effector memory CD4+CD44+CD62L− were sorted using BD FACSAria sorter and activated with plate-bound anti-CD3 and anti-CD28 antibodies (both at 2 μg/ml) in the presence of cytokines at a concentration of 2.5×10^5 cells/ml. For Th17 differentiation: 2 ng/ml of rhTGFβ1, 2 ng/ml of rhTGFβ3, 25 ng/ml rmIL-6, 20 ng/ml rmIL-18 (all from Miltenyi Biotec) and 20 ng/ml rmIL-23 (R & D systems) were used at various combinations as specified in figures. For Th1 differentiation, 20 ng/ml rmIL-12 (R & D systems); for Th2 differentiation 20 ng/ml rmIL-4 (Miltenyi Biotec); for iTreg differentiation, 2.5 ng/ml of rhTGFβ1 were used (Miltenyi Biotec). For differentiation experiments, cells were harvested at 48 hours. For restimulation experiments, cells were differentiated for 48 hours and resuspended in fresh media with no additional cytokines for 48-72 hours. Cells were re-stimulated with PMA/ionomycin for four hours before analysis for cytokines by intracellular cytokine staining. For experiments with exogenous fatty acid, fatty acids were purchased and resuspended first with serum-free media containing BSA prior being added to culture.
# Nanostring nCounter. Nanostring nCounter platform (NanoString Technologies) is used to measure the number of RNA transcripts in RNA samples (FIG. 16I, FIG. 18D). A codeset containing 312 signature genes of Th17 cell differentiation and function as well as 4 additional house-keeping genes were custom-made (Yosef et al., 2013) and used in these experiments. Experimental procedures as detailed by the manufacturer is strictly followed.
compound,measurement,value
"CCCCC/C=C\C/C=C\C/C=C\C/C=C\CCCC(=O)O [PUFA, arachidonic acid]","ATF2 expression (Nanostring), normalized to WT",0.89
same,"Abcg2 expression (Nanostring), normalized to WT",1.20
same,"Acvr2a expression (Nanostring), normalized to WT",1.32
same,"Ahr expression (Nanostring), normalized to WT",1.08
same,"Arl5a expression (Nanostring), normalized to WT",1.33
same,"Atf4 expression (Nanostring), normalized to WT",0.73
same,"BC021614 expression (Nanostring), normalized to WT",1.04
same,"Bcl2l11 expression (Nanostring), normalized to WT",0.71
same,"Bcl3 expression (Nanostring), normalized to WT",1.13
same,"Bcl11b expression (Nanostring), normalized to WT",1.03
same,"Bhlhe40 expression (Nanostring), normalized to WT",0.70
same,"Casp3 expression (Nanostring), normalized to WT",0.71
same,"Casp4 expression (Nanostring), normalized to WT",1.52
same,"Ccl1 expression (Nanostring), normalized to WT",0.67
same,"Ccl20 expression (Nanostring), normalized to WT",0.84
same,"Ccr4 expression (Nanostring), normalized to WT",1.69
same,"Ccr8 expression (Nanostring), normalized to WT",0.71
same,"Cd9 expression (Nanostring), normalized to WT",1.27
same,"Cd70 expression (Nanostring), normalized to WT",0.77
same,"Cd83 expression (Nanostring), normalized to WT",0.88
same,"Cd86 expression (Nanostring), normalized to WT",1.73
same,"Cd247 expression (Nanostring), normalized to WT",1.32
same,"Clcf1 expression (Nanostring), normalized to WT",1.25
same,"Csf2 expression (Nanostring), normalized to WT",1.20
same,"Ctla4 expression (Nanostring), normalized to WT",1.63
same,"Cxcl10 expression (Nanostring), normalized to WT",1.64
same,"Cxcr3 expression (Nanostring), normalized to WT",1.44
same,"Cxcr4 expression (Nanostring), normalized to WT",0.87
same,"Cxcr5 expression (Nanostring), normalized to WT",1.42
same,"EBF1 expression (Nanostring), normalized to WT",1.64
same,"Egr2 expression (Nanostring), normalized to WT",1.64
same,"Elk3 expression (Nanostring), normalized to WT",1.04
same,"Ercc5 expression (Nanostring), normalized to WT",0.66
same,"Etv6 expression (Nanostring), normalized to WT",1.70
same,"Faim3 expression (Nanostring), normalized to WT",1.31
same,"Fli1 expression (Nanostring), normalized to WT",1.35
same,"Flna expression (Nanostring), normalized to WT",1.10
same,"Foxo1 expression (Nanostring), normalized to WT",1.03
same,"Foxp1 expression (Nanostring), normalized to WT",1.25
same,"Foxp3 expression (Nanostring), normalized to WT",1.22
same,"Frmd4b expression (Nanostring), normalized to WT",1.28
same,"Fxd7 expression (Nanostring), normalized to WT",0.72
same,"Gap43 expression (Nanostring), normalized to WT",0.68
same,"Gem expression (Nanostring), normalized to WT",0.73
same,"Gimap5 expression (Nanostring), normalized to WT",1.58
same,"Gja1 expression (Nanostring), normalized to WT",0.66
same,"Gmfg expression (Nanostring), normalized to WT",0.76
same,"Grn expression (Nanostring), normalized to WT",1.16
same,"Gusb expression (Nanostring), normalized to WT",0.94
same,"Hip1r expression (Nanostring), normalized to WT",0.89
same,"IL-33 expression (Nanostring), normalized to WT",0.66
same,"Ifih1 expression (Nanostring), normalized to WT",1.25
same,"Ifng expression (Nanostring), normalized to WT",0.93
same,"Ikzf3 expression (Nanostring), normalized to WT",1.06
same,"Il1r1 expression (Nanostring), normalized to WT",1.36
same,"Il2ra expression (Nanostring), normalized to WT",0.99
same,"Il3 expression (Nanostring), normalized to WT",1.45
same,"Il4ra expression (Nanostring), normalized to WT",1.13
same,"Il6st expression (Nanostring), normalized to WT",0.89
same,"Il7r expression (Nanostring), normalized to WT",1.37
same,"Il10 expression (Nanostring), normalized to WT",1.01
same,"Il10ra expression (Nanostring), normalized to WT",0.95
same,"Il12rb1 expression (Nanostring), normalized to WT",0.80
same,"Il12rb2 expression (Nanostring), normalized to WT",1.60
same,"Il17a expression (Nanostring), normalized to WT",1.11
same,"Il17f expression (Nanostring), normalized to WT",0.71
same,"Il21 expression (Nanostring), normalized to WT",0.97
same,"Il23r expression (Nanostring), normalized to WT",1.11
same,"Il27ra expression (Nanostring), normalized to WT",1.55
same,"Inhba expression (Nanostring), normalized to WT",0.81
